Data taken from US7998988B2, “Biphenyl compounds useful in the treatment or prevention of cardiovascular disorders” (Bayer Schering Pharma Aktiengellschaft, priority 2005, dated 2011).
pIC50: −log10 of the molar value.

Test system: saphenous artery rings
Assay: Vasorelaxant effect in vitro (phenylephrine-contracted artery rings)
Assay type: cell-based
Details: Oryctolagus cuniculus, rabbit saphenous artery rings, contraction induced by phenylephrine
Protocol: Rabbits are anesthetized and sacrificed by intravenous injection of thiopental sodium (about 50 mg/kg) and exsanguinated. The saphenous artery is removed and divided into rings 3 mm wide. The rings are mounted singly on in each case a pair of triangular hooks open at the end and made of 0.3 mm-thick special wire (Remanium®). Each ring is placed under an initial tension in 5 ml organ baths with Krebs-Henseleit solution which is at 37° C., is gassed with 95% 02/5% CO2 and has the following composition: NaCl 119 mM; KCl 4.8 mM; CaCl2×2H2O 1 mM; MgSO4×7 H2O 1.4 mM; KH2PO4 1.2 mM; NaHCO3 25 mM; glucose 10 mM; bovine serum albumin 0.001%. The force of contraction is detected with Statham UC2 cells, amplified and digitized via A/D converters (DAS-1802 HC, Keithley Instruments, Munich) and recorded in parallel on chart recorders. Contractions are induced by addition of phenylephrine.
After several (generally 4) control cycles, the substance to be investigated is added in each further run in increasing dosage, and the height of the contraction achieved under the influence of the test substance is compared with the height of the contraction reached in the last preceding run. The concentration necessary to reduce the contraction reached in the preceding control by 50% is calculated from this (IC50). The standard application volume is 5 μl. The proportion of DMSO in the bath solution corresponds to 0.1%.

pIC50	SMILES
6.31	O=C(O)c1ccc(CC(/C=C/c2ccccc2OCc2ccc(-c3ccc(C(F)(F)F)cc3)cc2)CCc2ccc(-c3noc(=O)[nH]3)cc2)cc1 (single isomer, unassigned) [Example 18]
6.14	COc1ccc(CCc2ccc(F)cc2/C=C/C(CCc2ccc(-c3noc(=O)[nH]3)cc2)Cc2ccc(C(=O)O)cc2)cc1 (single isomer, unassigned) [Example 11, E-4-(4-{5-Fluoro-2-[2-(4-methoxyphenyl)ethyl]phenyl}-2-{2-[4-(5-oxo-4,5-dihydro-[1,2,4]oxadiazol-3-yl)phenyl]ethyl}but-3-enyl)benzoic acid]
7.59	O=C(O)c1ccc(CN(CCc2ccc(-c3noc(=O)[nH]3)cc2)CCc2ccccc2OCc2ccc(-c3ccc(C(F)(F)F)cc3)cc2)cc1 [Example 1, 4-[({2-[4-(5-Oxo-4,5-dihydro-[1,2,4]oxadiazol-3-yl)phenyl]ethyl}-{2-[2-(4′-trifluoromethylbiphenyl-4-ylmethoxy)phenyl]ethyl}amino)methyl]benzoic acid]
6.05	CC(C)(C)c1ccc(COc2ccccc2/C=C/C(CCCCC(=O)O)CCc2ccc(-c3noc(=O)[nH]3)cc2)cc1 (single isomer, unassigned) [Example 71, E-8-[2-(4-tert-Butylbenzyloxy)phenyl]-6-{2-[4-(5-oxo-4,5-dihydro-[1,2,4]oxadiazol-3-yl)phenyl]-ethyl}oct-7-enoic acid]
6.39	CCCCCCOc1ccccc1/C=C/C(CCc1ccc(C(=O)O)cc1)Cc1ccc(-c2noc(=O)[nH]2)cc1 (single isomer, unassigned) [Example 95]
7.24	CC(C)(C)c1ccc(COc2ccccc2/C=C/C(CCCCC(=O)O)Cc2ccc(-c3n[nH]c(=O)o3)cc2)cc1 (stereo not shown) [Example 85, E-8-[2-(4-tert-Butylbenzyloxy)phenyl]-6-[4-(5-oxo-4,5-dihydro-[1,3,4]oxadiazol-2-yl)benzyl]oct-7-enoic acid]
6.07	CC(C)(C)c1ccc(COc2ccccc2/C=C/C(CCc2ccc(-c3n[nH]c(=S)[nH]3)cc2)Cc2ccc(C(=O)O)cc2)cc1 (stereo not shown) [Example 76, 4-((3E)-4-{2-[(4-tert-Butylbenzyl)oxy]phenyl}-2-{2-[4-(5-thioxo-4,5-dihydro-1H-1,2,4-triazol-3-yl)phenyl]ethyl}but-3-en-1-yl)benzoic acid]
6.30	CC(C)(C)c1ccc(COc2ccc(F)cc2/C=C/C(CCc2ccc(-c3noc(=O)[nH]3)cc2)Cc2ccc(C(=O)O)cc2)cc1 (single isomer, unassigned) [Example 51]
7.13	CC(C)(C)c1ccc(COc2ccccc2/C=C/C(CCc2ccc(C(=O)O)cc2)Cc2ccc(-c3n[nH]c(=O)[nH]3)cc2)cc1 (stereo not shown) [Example 80, 4-{(4E)-5-{2-[(4-tert-Butylbenzyl)oxy]phenyl}-3-[4-(5-oxo-4,5-dihydro-1H-1,2,4-triazol-3-yl)benzyl]pent-4-en-1-yl}benzoic acid]
6.15	O=C(O)c1ccc(CCC(/C=C\c2ccccc2OCc2ccc(-c3ccc(C(F)(F)F)cc3)cc2)Cc2ccc(-c3noc(=O)[nH]3)cc2)cc1 (single isomer, unassigned) [Example 57]
6.37	CC(C)(C)c1ccc(COc2ccccc2/C=C/C(CCc2ccc(C(=O)O)cc2)Cc2ccc(-c3n[nH]c(N)n3)cc2)cc1 (stereo not shown) [Example 81, 4-((4E)-3-[4-(5-Amino-1H-1,2,4-triazol-3-yl)benzyl]-5-{2-[(4-tert.-butylbenzyl)oxy]phenyl}pent-4-en-1-yl)benzoic acid]
6.41	CCCCCOc1ccccc1/C=C/C(CCc1ccc(C(=O)O)cc1)Cc1ccc(-c2noc(=O)[nH]2)cc1 (single isomer, unassigned) [Example 92]
7.89	CC(C)(C)c1ccc(COc2ccccc2/C=C/C(CCc2ccc(C(=O)O)cc2)Cc2ccc(-c3n[nH]c(=O)o3)cc2)cc1 (single isomer, unassigned) [Example 78, 4-{(4E)-5-{2-[(4-tert-Butylbenzyl)oxy]phenyl}-3-[4-(5-oxo-4,5-dihydro-1,3,4-oxadiazol-2-yl)benzyl]pent-4-en-1-yl}benzoic acid]
6.54	CC(C)(C)c1ccc(COc2ccccc2/C=C/C(CCCCC(=O)O)CCc2ccc(-c3n[nH]c(=O)o3)cc2)cc1 (stereo not shown) [Example 74]
5.88	O=C(O)c1ccc(CCC(/C=C\c2ccccc2OC(F)(F)F)Cc2ccc(-c3noc(=O)[nH]3)cc2)cc1 (single isomer, unassigned) [Example 96]
6.58	CC(C)(C)c1ccc(COc2ccccc2/C=C/C(CCc2ccc(C(=O)O)cc2)Cc2ccc(-c3noc(=O)[nH]3)cc2)cc1 (single isomer, unassigned) [Example 66]

Same assay, conditions: rabbit saphenous artery rings, contraction induced by phenylephrine

pIC50	SMILES
6.07	O=C(O)c1ccc(CC(/C=C/c2ccccc2OCc2ccc(-c3ccc(C(F)(F)F)cc3)cc2)CCc2ccc(-c3noc(=O)[nH]3)cc2)cc1 (single isomer, unassigned) [Example 19]
6.20	O=C(O)c1ccc(CCC(/C=C/c2ccccc2OCc2ccc(-c3ccc(C(F)(F)F)cc3)cc2)Cc2ccc(-c3noc(=O)[nH]3)cc2)cc1 (single isomer, unassigned) [Example 56, E-4-{3-[4-(5-Oxo-4,5-dihydro-[1,2,4]oxadiazol-3-yl)benzyl]-5-[2-(4′-trifluoromethylbiphenyl-4-ylmethoxy)phenyl]pent-4-enyl}benzoic acid]
6.82	CC(C)(C)c1ccc(COc2ccccc2/C=C/C(CCc2ccc(C(=O)O)cc2)Cc2ccc(-c3noc(=O)[nH]3)cc2)cc1 (single isomer, unassigned) [Example 67]
